Data taken from patent US11076595B2, “1-(n,n-disubstituted carbamoyl) 4-(substituted sulfonyl)triazolin-5-one derivative, 4-(n,n-disubstituted carbamoyl) 1-(substituted sulfonyl)triazolin-5-one derivative, and herbicide containing said derivative as active ingredient” (HOKKO CHEMICAL INDUSTRY CO., LTD., priority 2017, dated 2021).

Legend:
Type in all cases: in vivo
Amaranthus viridis = test: Test Example 14: herbicidal effect test by foliage treatment in upland field; conditions: 7 days after sowing, 120 g/10a, 14 days after treatment
Experimental: (§1) This test was performed with two replications per one formulation concentration plot, and 14 days after the formulation treatments, the weed suppression rate (%) was determined according to the following equation (Math. 2). Weed suppression rate (%)=(1−average dry weight (g) of plants in treated plots/average dry weight (g) of plants in untreated plots)×100 [Math. 2]
(§2) A pot having a size of 36 cm^2 was filled with field soil (alluvial soil) and after uniformly mixing the soil of the surface layer of 1 cm with 20 grains of each weed seed of crabgrass, Echinochloa crus-galli, Chenopodium album and Amaranthus viridis, the surface layer was pressed lightly. Seven Days after the sowing, an emulsifiable concentrate prepared according to Formulation Example 15 by using the compound shown in Table 12 below was diluted with water, and the water-diluted formulation was sprayed on the soil surface at a ratio of 100 liter per 10 are. The application rate of the active ingredient, by conversion, corresponded to 120 g per 10 are. Fourteen Days after the formulation treatment, the herbicidal effect was evaluated by the same criteria as in Test Example 11.

Echinochloa crus-galli [1] = test: as above; conditions: 7 days after sowing, 120 g/10a, 14 days after treatment
Experimental: as §1, §2

Scirpus juncoides [2] = test: Test Example 11: herbicidal effect test by soil treatment in paddy field; conditions: 120 g/10a active ingredient, 14 days after treatment
In short: (§3)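 Pre-emergence paddy test, 120 g a.i./10 are, emulsifiable concentrate diluted in water and added dropwise to ~3 cm flood water right after sowing (30 seeds/species, 0–1 cm depth, fertilized puddled soil). Greenhouse; 2 replicates; dry-weight suppression (%) vs untreated, day 14.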

Monochoria vaginalis [3] = test: as above; conditions: 120 g/10a active ingredient, 14 days after treatment
In short: as §3

Echinochloa crus-galli [4] = test: as above; conditions: 120 g/10a active ingredient, 14 days after treatment
In short: as §3

Lindernia pyxidaria [5] = test: as above; conditions: 120 g/10a active ingredient, 14 days after treatment
In short: as §3

Scirpus juncoides [6] = test: Test Example 12: herbicidal effect test by treatment during growing period in paddy field; conditions: 120 g/10a; treatment seven days after sowing in flooded paddy pot; assessed 14 days after treatment
In short: (§4)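 Seeds (30 per species) are sown shallowly into fertilized, puddled paddy soil kept under ~3 cm of water in a greenhouse. One week later, compound formulated as an emulsifiable concentrate is applied dropwise to the water at 120 g a.i./10 are. After 14 days, dry weights give percent suppression against untreated controls.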

Monochoria vaginalis [7] = test: as above; conditions: 120 g/10a; treatment seven days after sowing in flooded paddy pot; assessed 14 days after treatment
In short: as §4

Echinochloa crus-galli [8] = test: as above; conditions: 120 g/10a; treatment seven days after sowing in flooded paddy pot; assessed 14 days after treatment
In short: as §4

Lindernia pyxidaria [9] = test: as above; conditions: 120 g/10a; treatment seven days after sowing in flooded paddy pot; assessed 14 days after treatment
In short: as §4

Chenopodium album = test: Test Example 14: herbicidal effect test by foliage treatment in upland field; conditions: 7 days after sowing, 120 g/10a, 14 days after treatment
Experimental: as §2

crabgrass = test: as above; conditions: 7 days after sowing, 120 g/10a, 14 days after treatment
Experimental: as §2

Row | Structure (SMILES) | herbicidal effect, Amaranthus viridis (Amaranthus viridis) | herbicidal effect, Echinochloa crus-galli (Echinochloa crus-galli [1]) | Weed suppression rate (%) Scirpus juncoides (Scirpus juncoides [2]) | Weed suppression rate (%) Monochoria vaginalis (Monochoria vaginalis [3]) | Weed suppression rate (%) Echinochloa crus-galli (Echinochloa crus-galli [4]) | Weed suppression rate (%) Lindemia pyxidaria (Lindernia pyxidaria [5]) | Weed suppression rate (%) Scirpus juncoides (Scirpus juncoides [6]) | Weed suppression rate (%) Monochoria vaginalis (Monochoria vaginalis [7]) | Weed suppression rate (%) Echinochloa crus-galli (Echinochloa crus-galli [8]) | Weed suppression rate (%) Lindemia pyxidaria (Lindernia pyxidaria [9]) | herbicidal effect, Chenopodium album (Chenopodium album) | herbicidal effect, Crabgrass (crabgrass)
1 | CC(C)N(C(=O)n1cnn(S(=O)(=O)C(C)C)c1=O)c1ccc(C(F)(F)F)cc1F [Compound 11-76] | 80% | 100% | 60% | 100% | 100% | 80% | 60% | 80% | 100% | 60% | 60% | 100%
2 | C=CS(=O)(=O)n1ncn(C(=O)N(c2ccc(F)cc2F)C(C)C)c1=O [Compound 11-134] | 40% | 40% | 40% | 40% | 70% | 40% | 40% | 40% | 70% | 40% | 40% | 70%
3 | O=C(N(CC(F)(F)F)c1ccc(F)cc1F)n1cnn(S(=O)(=O)C2CC2)c1=O [Compound 11-144] | 80% | 80% | 100% | 80% | 100% | 90% | 100% | 100% | 100% | 100% | 60% | 80%
4 | CC(C)N(C(=O)n1cnn(S(=O)(=O)C2CC2)c1=O)c1ccc(F)cc1Cl [Compound 11-205] | 70% | 100% | 100% | 90% | 100% | 100% | 100% | 100% | 100% | 80% | 70% | 100%
5 | CC(C)N(C(=O)n1cnn(S(=O)(=O)C2CC2)c1=O)c1ccc(Cl)cc1F [Compound 11-206] | 60% | 90% | 100% | 100% | 100% | 100% | 90% | 90% | 100% | 90% | 60% | 90%
6 | CC(C)N(C(=O)n1cnn(S(=O)(=O)C2CC2)c1=O)c1ccc(Br)cc1Cl [Compound 11-209] | 30% | 90% | 100% | 90% | 100% | 100% | 100% | 90% | 100% | 80% | 60% | 90%
7 | Cc1cc(Cl)ccc1N(C(=O)n1cnn(S(=O)(=O)C2CC2)c1=O)C(C)C [Compound 11-213] | 90% | 80% | 90% | 60% | 100% | 90% | 90% | 80% | 90% | 80% | 80% | 90%
8 | CC(C)N(C(=O)n1cnn(S(=O)(=O)C2CC2)c1=O)c1ccc(C(F)(F)F)cc1F [Compound 11-217] | 60% | 100% | 80% | 100% | 100% | 100% | 80% | 90% | 100% | 80% | 70% | 100%
9 | CC(C)N(C(=O)n1cnn(S(=O)(=O)C2CCCCC2)c1=O)c1cccc(F)c1 [Compound 11-285] | 90% | 80% | 90% | 80% | 90% | 80% | 90% | 80% | 90% | 80% | 80% | 90%
10 | CC(C)N(C(=O)n1cnn(S(=O)(=O)C2CCCCC2)c1=O)c1cccc(F)c1F [Compound 11-293] | 60% | 90% | 100% | 100% | 100% | 100% | 100% | 100% | 100% | 100% | 70% | 100%
11 | CC(C)N(C(=O)n1cnn(S(=O)(=O)C2CCCCC2)c1=O)c1c(F)c(F)cc(F)c1F [Compound 11-299] | 60% | 100% | 100% | 70% | 100% | 100% | 100% | 100% | 100% | 80% | 60% | 100%
12 | CC(C)N(C(=O)n1cnn(S(=O)(=O)C2CCCCC2)c1=O)c1ccc(Cl)cc1Br [Compound 11-306] | 70% | 60% | 100% | 60% | 100% | 80% | 100% | 70% | 90% | 70% | 70% | 100%
13 | CC(C)N(C(=O)n1cnn(S(=O)(=O)c2ccccc2F)c1=O)c1ccccc1 [Compound 11-391] | 40% | 60% | 80% | 60% | 90% | 80% | 80% | 80% | 90% | 80% | 40% | 90%
